From ChEMBL document CHEMBL5252631, “A pharmacophore-based approach to demonstrating the scope of alcohol dehydrogenases” (Bioorg Med Chem, 2023) come the findings set out here.

Assay [1] can be described thus: Substrate activity at ADH101 (unknown origin) assessed as specific enzyme activity using NADH as cofactor at 2.5 to 10 mM measured for 30 mins in presence of Tris HCL buffer by UV-Vis spectroscopy analysis. The settings on record: dose 2.5-10 mM.
The nature of assay [2]: Substrate activity at ADH101 (unknown origin) assessed as specific enzyme activity using NADH as cofactor at 2.5 to 10 mM measured for 30 mins in presence of 20% hexane-Tris HCL buffer by UV-Vis spectroscopy analysis. The settings on record: Homo sapiens, dose 2.5-10 mM.
A short description of assay [3]: Substrate activity at ADH105 (unknown origin) assessed as specific enzyme activity using NADH as cofactor at 2.5 to 10 mM measured for 30 mins in presence of 20% hexane-Tris HCL buffer by UV-Vis spectroscopy analysis. The settings on record: dose 2.5-10 mM.
Assay [4] can be described thus: Substrate activity at ADH105 (unknown origin) assessed as specific enzyme activity using NADH as cofactor at 2.5 to 10 mM measured for 30 mins in presence of Tris HCL buffer by UV-Vis spectroscopy analysis. The settings on record: Homo sapiens, dose 2.5-10 mM.
The nature of assay [5]: Substrate activity at ADH20 (unknown origin) assessed as specific enzyme activity using NADPH as cofactor at 2.5 to 10 mM measured for 30 mins in presence of Tris HCL buffer by UV-Vis spectroscopy analysis. The settings on record: Homo sapiens, dose 2.5-10 mM.
A short description of assay [6]: Substrate activity at ADH150 (unknown origin) assessed as specific enzyme activity using NADPH as cofactor at 2.5 to 10 mM measured for 30 mins in presence of Tris HCL buffer by UV-Vis spectroscopy analysis. The settings on record: Homo sapiens, dose 2.5-10 mM.
Assay [7] is described as follows: Substrate activity at ADH19 (unknown origin) assessed as specific enzyme activity using NADPH as cofactor at 2.5 to 10 mM measured for 30 mins in presence of Tris HCL buffer by UV-Vis spectroscopy analysis. The settings on record: Homo sapiens, dose 2.5-10 mM.
The nature of assay [8]: Substrate activity at ADH61 (unknown origin) assessed as specific enzyme activity using NADPH as cofactor at 2.5 to 10 mM measured for 30 mins in presence of Tris HCL buffer by UV-Vis spectroscopy analysis. The settings on record: Homo sapiens, dose 2.5-10 mM.

`CC(=O)CCc1ccccc1`: the Activity in assay [1] turned out to be 109 nmol/min/mg; in assay [2], 95.7 nmol/min/mg; in assay [3], 364 nmol/min/mg.
Take `CC(=O)c1ccc(Cl)nc1`: the Activity in assay [1] worked out at 32.2 nmol/min/mg; in assay [2], 62.5 nmol/min/mg; in assay [3] it was 92 nmol/min/mg; in assay [4], 371 nmol/min/mg.
On to `CC(=O)c1ccccc1O`, for which the figures for the Activity in assay [1] and in assay [4] were 11.3 nmol/min/mg and 23.1 nmol/min/mg, respectively.
Take `CC(=O)c1cncnc1`: the Activity came out at 45.2 nmol/min/mg in assay [2] and 50.5 nmol/min/mg in assay [3].
On to `CC(=O)c1ccc(Br)c(F)c1`, for which the Activity in assay [1] amounted to 46.3 nmol/min/mg; in assay [2], 103 nmol/min/mg; in assay [3], 242 nmol/min/mg.
Turning to `CC(=O)c1cc[nH]n1`, the Activity in assay [5] amounted to 24.1 nmol/min/mg; in assay [6], 11.8 nmol/min/mg; in assay [7], 10.3 nmol/min/mg; in assay [8] it was 10.7 nmol/min/mg; in assay [2], 5.6 nmol/min/mg; in assay [3], 20.7 nmol/min/mg.
For the compound `CC(=O)c1ccc2ccccc2c1`, the Activity stood at 7.68 nmol/min/mg in assay [1], 37 nmol/min/mg in assay [2] and 54 nmol/min/mg in assay [3].
Regarding `COc1ccc(C(C)=O)cc1OC`, the Activity in assay [2] was 59.8 nmol/min/mg; in assay [3], 220 nmol/min/mg.
As for `O=C(c1ccccc1)c1ccccc1`, the Activity in assay [5] came out at 41.1 nmol/min/mg; in assay [6], 69.9 nmol/min/mg; in assay [1] it was 35.7 nmol/min/mg; in assay [2] it was 73.9 nmol/min/mg; in assay [3] it was 14.3 nmol/min/mg; in assay [4] it was 12.8 nmol/min/mg.
On to `CC(=O)c1cccc(Br)c1`, for which the Activity in assay [1] worked out at 19.9 nmol/min/mg; in assay [2] it was 12.2 nmol/min/mg; in assay [3], 142 nmol/min/mg; in assay [4] it was 1.9 nmol/min/mg.
Take `O=C(CBr)c1ccccc1`: the Activity came to 44.6 nmol/min/mg in assay [1], 89.2 nmol/min/mg in assay [2], 337 nmol/min/mg in assay [3] and 18.7 nmol/min/mg in assay [4].
Regarding `COc1ccccc1C(C)=O`, the Activity is 2.46 nmol/min/mg in assay [1], 83 nmol/min/mg in assay [3] and 13.4 nmol/min/mg in assay [4].
For `CC(=O)c1ccc(Br)cc1F`, the Activity was 15.9 nmol/min/mg in assay [1], 57.7 nmol/min/mg in assay [2] and 366 nmol/min/mg in assay [3].
For `CC(=O)c1ccc(N)cc1`, the Activity in assay [1] turned out to be 5.03 nmol/min/mg; in assay [2], 43.9 nmol/min/mg; in assay [3] it was 80.4 nmol/min/mg; in assay [4], 21.3 nmol/min/mg.
`CC(=O)c1cc(F)ccc1O`: the Activity in assay [2] was 42.8 nmol/min/mg.
For the compound `CC(=O)c1ccccc1`, the Activity came to 43.1 nmol/min/mg in assay [1], 54.1 nmol/min/mg in assay [2], 99.1 nmol/min/mg in assay [3] and 142 nmol/min/mg in assay [4].
Consider `CCCCCCCCC(C)=O`, for which the Activity in assay [1] is 39.5 nmol/min/mg; in assay [2], 25.7 nmol/min/mg; in assay [3], 37.1 nmol/min/mg; in assay [4] it was 8.95 nmol/min/mg.
Turning to `CC(=O)c1ccc(Br)nc1`, the Activity is 33.2 nmol/min/mg in assay [2] and 269 nmol/min/mg in assay [3].
For the compound `CCOc1ccc(C(C)=O)cc1`, the Activity in assay [1] is 4.37 nmol/min/mg; in assay [2], 19.9 nmol/min/mg; in assay [3], 196 nmol/min/mg; in assay [4] it was 81.1 nmol/min/mg.
Turning to `O=C1CN2CCC1CC2`, the results for the Activity in assay [2], in assay [3] and in assay [4] were 85.3 nmol/min/mg, 23.4 nmol/min/mg and 13 nmol/min/mg, respectively.
In the case of `COc1ccc2[nH]cc(CCNC(C)=O)c2c1`, the Activity in assay [3] worked out at 21.7 nmol/min/mg.
With `CC(=O)c1ccc(Br)cc1O`, the Activity in assay [1] is 112 nmol/min/mg; in assay [2] it was 10 nmol/min/mg; in assay [3] it was 27.2 nmol/min/mg.
On to `CC(=O)c1ccc(Br)cc1`, for which the Activity in assay [1] stood at 38.1 nmol/min/mg; in assay [2], 73.1 nmol/min/mg; in assay [3] it was 158 nmol/min/mg; in assay [4], 56.1 nmol/min/mg.
Turning to `CC(=O)c1ccc(C(F)(F)F)nc1`, the Activity came to 80.9 nmol/min/mg in assay [2] and 210 nmol/min/mg in assay [3].
In the same order, the values of `COc1cc(OC)cc(C(C)=O)c1` are 59.2 nmol/min/mg and 363 nmol/min/mg.
`CC(=O)c1cccnc1`: the Activity in assay [1] worked out at 9.45 nmol/min/mg; in assay [2] it was 34 nmol/min/mg; in assay [3] it was 163 nmol/min/mg; in assay [4] it was 121 nmol/min/mg.
Consider `CC(=O)c1ccccn1`, for which the Activity in assay [1] is 22.2 nmol/min/mg; in assay [2], 35.5 nmol/min/mg; in assay [3] it was 60.3 nmol/min/mg; in assay [4], 70.4 nmol/min/mg.
As for `CC(=O)c1ccc(I)cc1`, the Activity in assay [2] stood at 51.3 nmol/min/mg; in assay [3], 117 nmol/min/mg.
`CC(=O)c1nccn1C`: the Activity worked out at 14.7 nmol/min/mg in assay [2] and 20.7 nmol/min/mg in assay [3].
In the same order, the values of `COc1cccc(C(C)=O)c1` are 13.8 nmol/min/mg and 397 nmol/min/mg.
Consider `O=C(c1ccccc1)C(F)(F)F`, for which the Activity in assay [1] was found to be 9.22 nmol/min/mg; in assay [2], 46.2 nmol/min/mg; in assay [3], 29.4 nmol/min/mg; in assay [4], 19.1 nmol/min/mg.
As to `CC(=O)c1ccc(F)cc1`, the Activity in assay [1] was determined as 26.4 nmol/min/mg; in assay [2], 22.9 nmol/min/mg; in assay [3], 122 nmol/min/mg; in assay [4], 86.4 nmol/min/mg.
In the case of `CC(=O)/C=C/c1ccccc1`, the Activity in assay [1] stood at 60.7 nmol/min/mg; in assay [2] it was 67.2 nmol/min/mg; in assay [3], 62.1 nmol/min/mg; in assay [4], 6.97 nmol/min/mg.
With `COc1cc(C(C)=O)cc(OC)c1OC`, the values for the Activity in assay [1], in assay [3] and in assay [4] were 11.7 nmol/min/mg, 89.9 nmol/min/mg and 154 nmol/min/mg, respectively.
As to `CC(=O)c1ccc(F)nc1`, the Activity was found to be 24.7 nmol/min/mg in assay [1], 51 nmol/min/mg in assay [2], 137 nmol/min/mg in assay [3] and 182 nmol/min/mg in assay [4].
Regarding `CC(=O)c1cnc2ccccc2c1`, the Activity in assay [2] worked out at 13.7 nmol/min/mg; in assay [3], 229 nmol/min/mg.
Take `CNCC(=O)c1cccc(O)c1`: the Activity was found to be 67.2 nmol/min/mg in assay [5]; 38.6 nmol/min/mg in assay [6]; 6.78 nmol/min/mg in assay [7]; 12.4 nmol/min/mg in assay [2]; 17.4 nmol/min/mg in assay [3]; 20.8 nmol/min/mg in assay [4].
In the case of `CC(=O)c1cccc(C#N)c1`, the Activity worked out at 57.4 nmol/min/mg in assay [2] and 173 nmol/min/mg in assay [3].
For `CC(=O)c1cccc(O)c1`, the Activity in assay [1] was 4.76 nmol/min/mg; in assay [2], 14.8 nmol/min/mg; in assay [3], 157 nmol/min/mg; in assay [4], 82.4 nmol/min/mg.
Consider `CC(=O)c1ccc([N+](=O)[O-])cc1`, for which the Activity in assay [1] was determined as 99.9 nmol/min/mg; in assay [2] it was 130 nmol/min/mg; in assay [3], 593 nmol/min/mg.
`CC(=O)c1ccc(C[C@H](N)C(=O)O)cc1`: the Activity in assay [5] was 55.7 nmol/min/mg; in assay [6], 33.7 nmol/min/mg; in assay [7], 7.76 nmol/min/mg; in assay [8], 123 nmol/min/mg; in assay [2], 10.2 nmol/min/mg; in assay [3], 62.2 nmol/min/mg.
For the compound `CC(=O)c1cnccn1`, the Activity in assay [2] was determined as 53.2 nmol/min/mg; in assay [3], 185 nmol/min/mg.
As to `CCc1ccc(OC)c(C(C)=O)c1`, the Activity in assay [1] turned out to be 49.8 nmol/min/mg; in assay [2], 52.9 nmol/min/mg; in assay [3], 64 nmol/min/mg; in assay [4], 14.1 nmol/min/mg.
For the compound `CC(=O)c1ccc(NS(C)(=O)=O)cc1`, the Activity in assay [3] was determined as 203 nmol/min/mg.
As for `CC(=O)c1ccc(O)cc1`, the Activity in assay [7] came out at 12.8 nmol/min/mg; in assay [8], 12.7 nmol/min/mg; in assay [3], 31.5 nmol/min/mg; in assay [4], 39.5 nmol/min/mg.
Consider `O=C(CCl)c1ccc(F)c(F)c1`, for which the Activity stood at 83.1 nmol/min/mg in assay [1], 87.1 nmol/min/mg in assay [2], 112 nmol/min/mg in assay [3] and 131 nmol/min/mg in assay [4].
`CC(=O)c1ccc2c(c1)OCO2`: the Activity in assay [1] was 17.7 nmol/min/mg; in assay [2], 34.2 nmol/min/mg; in assay [3], 189 nmol/min/mg; in assay [4], 70.1 nmol/min/mg.
Turning to `CC(=O)C1CCCC1`, the Activity in assay [2] worked out at 123 nmol/min/mg; in assay [3] it was 218 nmol/min/mg.
Turning to `CC(=O)C1CCCCC1`, the Activity in assay [1] came to 167 nmol/min/mg; in assay [2], 52.3 nmol/min/mg; in assay [3], 112 nmol/min/mg; in assay [4], 233 nmol/min/mg.
`O=c1[nH]c(=O)c2nc[nH]c2[nH]1`: the values for the Activity in assay [1], in assay [3] and in assay [4] were 319 nmol/min/mg, 15.9 nmol/min/mg and 9.28 nmol/min/mg, respectively.
Consider `CC(=O)c1ccccc1Br`, for which the Activity in assay [1] worked out at 75.1 nmol/min/mg; in assay [2], 38 nmol/min/mg; in assay [3], 39.5 nmol/min/mg; in assay [4], 6.37 nmol/min/mg.
Take `CC(=O)C1CC1`: the results for the Activity in assay [2] and in assay [3] were 82.8 nmol/min/mg and 98.2 nmol/min/mg, respectively.
Turning to `CC(C)(C)NCC(=O)c1cc(Cl)c(N)c(Cl)c1`, the Activity in assay [5] was 18.8 nmol/min/mg; in assay [6], 6.55 nmol/min/mg; in assay [7] it was 10.4 nmol/min/mg; in assay [8], 29 nmol/min/mg; in assay [3], 34.6 nmol/min/mg.
Consider `CC(=O)c1ccc(B2OC(C)(C)C(C)(C)O2)cc1`, for which the Activity in assay [2] was determined as 465 nmol/min/mg; in assay [3] it was 87 nmol/min/mg.
Turning to `CC(=O)Cc1ccccc1`, the Activity in assay [1] worked out at 5.98 nmol/min/mg; in assay [2], 22.2 nmol/min/mg; in assay [3], 239 nmol/min/mg; in assay [4] it was 274 nmol/min/mg.
Take `CC(=O)c1cc(C(F)(F)F)cc(C(F)(F)F)c1`: the Activity in assay [1] is 4.51 nmol/min/mg; in assay [2], 17.4 nmol/min/mg; in assay [3], 57.3 nmol/min/mg; in assay [4], 29.6 nmol/min/mg.
In the case of `COc1ccc(C(C)=O)cc1`, the Activity turned out to be 24.6 nmol/min/mg in assay [2] and 221 nmol/min/mg in assay [3].
